From patent US20030031723A1, “Formulation and method for preparation of rapid dispersion spheroids which can be heavily titrated” (priority 2001, published 2003)

Experiment: quantity of water absorbed by the same mass (100 g) of excipients
Type: physicochemical
Excerpt: Below are some examples supporting this statement, which test the quantity of water absorbed by the same mass (100 g) of excipients of different types: […]

- AMOUNT OF WATER ABSORBED PER 100 g OF EXCIPIENT: 15 g
SMILES: OC[C@H]1O[C@@H](O[C@H]2[C@H](O)[C@@H](O)C(O)O[C@@H]2CO)[C@H](O)[C@@H](O)[C@H]1O (stereo partly shown) [Lactose]
